Changes are numbered by the printed parent chain. Where two headings read alike, the source gives them in different places.
How the values were obtained:
[1] = target: T1, Rat CBG-WT (Rattus norvegicus, UniProt P31211); experiment: Isothermal titration calorimetry, steroid titrated to rat CBG-WT; type: binding; conditions: ITC, 25°C
T1 construct: residues 5 to 374 of rat CBG (P31211); GST (N, cleaved yes); made in house; host or cells: E. coli BL21 Star (DE3)
T1 sequence (P31211 27-396): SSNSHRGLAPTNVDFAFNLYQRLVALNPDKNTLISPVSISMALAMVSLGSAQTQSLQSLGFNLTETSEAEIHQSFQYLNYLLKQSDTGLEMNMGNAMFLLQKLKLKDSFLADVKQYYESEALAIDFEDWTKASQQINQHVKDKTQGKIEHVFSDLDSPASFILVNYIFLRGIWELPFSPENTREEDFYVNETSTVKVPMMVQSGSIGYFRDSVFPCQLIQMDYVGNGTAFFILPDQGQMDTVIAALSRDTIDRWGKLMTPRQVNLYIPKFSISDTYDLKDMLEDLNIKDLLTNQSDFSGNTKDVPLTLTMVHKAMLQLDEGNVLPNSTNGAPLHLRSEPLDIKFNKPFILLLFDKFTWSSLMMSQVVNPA
Experimental: (§1) The coding sequences of residues 11 to 383 of human CBG (Swiss-Prot entry P08185) and residues 5 to 374 of rat CBG (P31211) were cloned into a pGEX-2T vector (GE Healthcare, Uppsala), yielding N-terminal glutathione-S-transferase (GST) fusion proteins. Mutations were introduced using a two-stage PCR procedure based on the QuikChange (Stratagene, Santa Clara) site-directed mutagenesis protocol. All experiments with human CBG were conducted with a mutant in which surface residue Lys126 was replaced by alanine in order to facilitate crystallization. Wild-type rat CBG (rat CBG-WT) and rat CBG mutants CBG-RCL1, CBG-RCL2 and CBG-RCL3 were produced to probe the function of the RCL residues in rat CBG. All gene constructs were confirmed by DNA sequencing prior to protein production.
(§2) The GST-tagged human and rat CBG variants were produced in E. coli BL21 Star™ (DE3) cells (Invitrogen, Carlsbad) using the ZYM-5052 auto-inducing medium. For each variant, 10 L of ZYM-5052 medium containing 100 µg/mL ampicillin were inoculated with an overnight culture of a single clone. The flasks were incubated at 37°C until the optical density at 600 nm reached 0.3. The temperature was then lowered to 20°C, and the cells were allowed to grow for an additional 20 h. The pellet was resuspended in PBS buffer (pH 7.4) containing 5 mM EDTA after cell harvesting (4 mL of buffer per gram of pellet).
(§3) The protein samples were dialyzed against ITC buffer (20 mM potassium phosphate, 50 mM NaCl, pH 7.4) and titrated with steroids in a VP-ITC microcalorimeter (Microcal, Piscataway). All solutions were filtered (0.2 µm filter pore size) and degassed for 30 min prior to the titration experiments. The sample cell was filled with protein solution containing 15 µM rat CBG or 20 µM human CBG and titrated with steroid solutions containing 150 µM and 200 µM ligand, respectively. The titrations consisted of an initial injection of 2 µL followed by 25 consecutive injections of 10 µL ligand solution at 25°C. A spacing of 240 sec between the injections was used to allow a return to the baseline. Data points from the initial injection, which are generally affected by diffusion during the initial equilibration period after experiment setup, were discarded prior to data analysis. […] The binding curve was generated by plotting the heats of injections against the ratio of ligand to protein in the cell. Integrated heat data were analyzed using nonlinear regression fit with a one-site-binding model in the Origin-7™ software provided with the VP-ITC. Changes in the free energy and entropy can be calculated using the equation: ΔG° = −RTlnK = ΔH°−TΔS°. In this equation ΔG° is the change in Gibbs free energy, R the universal gas constant, T the temperature, and K the association constant. The change in enthalpy is denoted as ΔH°, and ΔS° is the change in entropy under standard conditions. The data shown in Table 2 were obtained from single titrations of each complex.

[2] = target: cleaved human CBG; design: method as in PMID 21325280; conditions: 37°C, cited from earlier work
[3] = target: T2, Cleaved rat CBG-RCL1 (Rattus norvegicus, UniProt P31211, A357V/P358T); experiment: Isothermal titration calorimetry, steroid titrated to neutrophil elastase-cleaved rat CBG-RCL1; type: binding
T2 construct: residues 5 to 374 of rat CBG (P31211); GST (N, cleaved yes); made in house; host or cells: E. coli BL21 Star (DE3)
T2 sequence (P31211 27-396 A357V/P358T limits assumed): T1 sequence (P31211 27-396) with A331V, P332T
Experimental: Cleavage of the RCL in human and rat CBG mutants was accomplished with 100 mU human neutrophil elastase (Sigma-Aldrich) per mg purified CBG at 30°C and monitored by SDS-PAGE. The cleavage reaction was stopped with AEBSF.
as §3

[4] = target: T3, Rat CBG-RCL1 (Rattus norvegicus, UniProt P31211, A357V/P358T); experiment: Isothermal titration calorimetry, steroid titrated to uncleaved rat CBG-RCL1; type: binding; conditions: ITC, 25°C
T3 construct: residues 5 to 374 of rat CBG (P31211); GST (N, cleaved yes); made in house; host or cells: E. coli BL21 Star (DE3)
T3 sequence (P31211 27-396 A357V/P358T): T1 sequence (P31211 27-396) with A331V, P332T
Experimental: as §1, §2
as §3, with “The change in enthalpy is denoted as ΔH°, and ΔS° is the change in entropy under standard conditions. The data shown in Table 2 were obtained from single titrations of each complex.” left out

[5] = target: uncleaved human CBG; design: method as in PMID 21325280; conditions: cited from earlier work
[6] = target: human CBG; design: method as in PMID 20631013; conditions: 37°C, fluorescence measurements; cited from earlier work
[7] = ITC, 25°C, cleaved rat CBG-RCL1

SMILES: C[C@]12CCC(=O)C=C1CC[C@@H]1[C@@H]2[C@@H](O)C[C@@]2(C)[C@H]1CC[C@]2(O)C(=O)CO [Hydrocortisone]
- TΔS° ([1]; rat CBG-WT): -20.3 kcal/mol
- ΔG° ([1]; rat CBG-WT): -9.44 kcal/mol
- ΔH° ([1]; rat CBG-WT): -29.78 kcal/mol
- Kd ([1]; single titration, uncleaved rat CBG-WT): 0.122 ± 0.006 µM
- Kd ([2]; cleaved human CBG-WT, read-out: K d 37°C): 1.37 ± 0.123 µM
- difference of affinities of uncleaved and cleaved human CBG ([2]; fluorescence titration): about 4.7 fold
- TΔS° [3, 7]: -30.43 kcal/mol
- ΔG° [3, 7]: -9.2 kcal/mol
- ΔH° [3, 7]: -39.63 kcal/mol
- Kd ([3]; ITC, 25°C, single titration, cleaved rat CBG-RCL1): 0.209 ± 0.02 µM
- decrease in binding affinity upon RCL cleavage ([3]; rat CBG, uncleaved vs cleaved rat CBG-RCL1, ITC 25°C): about 2 fold
- TΔS° [4]: -29.02 kcal/mol
- ΔG° [4]: -9.61 kcal/mol
- ΔH° [4]: -38.62 kcal/mol
- Kd ([4]; single titration): 0.095 ± 0.007 µM
- Kd ([5]; 22°C, uncleaved human CBG, fluorescence titration, read-out: binding affinity): 0.0269 µM
- Kd ([5]; 37°C, uncleaved human CBG-WT, read-out: K d 37°C): 0.292 ± 0.019 µM
- Kd [6]: 0.018 µM

From publication PMC3530532, “Corticosteroid-Binding Globulin: Structure-Function Implications from Species Differences” (PLoS ONE, 2012)
